Source: paper PMC10151572, “The identification of viral ribonucleotide reductase encoded by ORF23 and ORF141 genes and effect on CyHV-2 replication” (Frontiers in Microbiology, 2023)

Key:
[1] = biological target: T1, CyHV-2 RR (ORF23-GST + ORF141-His) (Cyprinid herpesvirus 2, UniProt K7PBF0+K7PBQ3); experiment: RR activity, dCDP formation by HPLC after borate column; assay type: biochemical; settings: hydroxyurea 80 μM; 10 μg of both recombinant proteins; CDP 80 μM, ATP 2.7 mM, other nucleotides; 50 mM HEPES-KOH, 5 mM MgCl2, 50 mM DTT, 20 mM ferrous ammonium sulfate; 1 h at 4°C
T1 construct: gene CyHV2_ORF23; recombinant ORF23-GST and ORF141-His mixed in vitro; RR described in general as two homodimers (alpha2beta2)

[2] = biological target: T1, CyHV-2 RR (ORF23-GST + ORF141-His); experiment: as above; assay type: biochemical; settings: CDP 80 μM with ATP 2.7 mM, dATP, dTTP, dGTP, UDP, ADP, GDP; both subunits needed; 50 mM HEPES-KOH, 5 mM MgCl2, 50 mM DTT, 20 mM ferrous ammonium sulfate; 1 h at 4°C

SMILES | % activity reduction at 80 μM [1] [%] | RR activity, dCDP formation by HPLC after borate column [2]
NC(=O)NO [hydroxyurea] | 52 | 
Nc1ccn([C@@H]2O[C@H](COP(=O)(O)OP(=O)(O)O)[C@@H](O)[C@H]2O)c(=O)n1 [CDP] |  | interaction between ORF23-GST and ORF141-His proteins is essential for catalyzing the reduction of CDP to
